Laboratory results published in publication PMC8973439, “From Fish Scale Gelatin to Tyrosinase Inhibitor: A Novel Peptides Screening Approach Application” (Frontiers in Nutrition, 2022).
Read-outs that look alike come from different tables or passages of the source. Values belong to the molecule of their own block, whether it stands above or below them. Where a SMILES comes first, the peptide text is derived from it.

Legend:
tyrosinase = conditions: cited from earlier work
Excerpt: Studies have shown that peptides with lower MW tend to have higher functional activity ([38]). Therefore, peptides with MW ≤ 1,000 Da were selected from the 52 peptides obtained, and 16 peptides (shown in Table 3) were obtained for subsequent analysis. Section Amino Acid Composition and Molecular Weight Distribution of Hydrolysates introduced some amino acids that contribute to tyrosinase inhibition, such as Val, Ala, Leu, Ile, Arg, Phe, Cys, Ser, and Thr. According to the screening method from previous study ([10]), 16 peptides in Table 3 were counted for their tyrosinase inhibitory contribut ...

Mushroom tyrosinase = Mushroom tyrosinase (Agaricus bisporus, UniProt C7FF04); assay: Tyrosinase inhibitory activity (L-DOPA oxidation, 475 nm); type: biochemical
Protocol: The determination of the tyrosinase inhibitory activity was made according to Uysal et al. ([26]). Sample solutions (50 μl) with the appropriate concentration were reacted with 50 μl of 200 mM pH 6.8 phosphate buffer saline (PBS) solution and 50 μl of tyrosinase at room temperature for 15 mins. Then, 50 μl of 2.5 mM L-DOPA was added, and allowed to react at 30°C for 10 min. The absorbance (As) at 475 nm was finally measured with a microplate reader (Synergy H1, BioTek Co., Ltd., USA). Taking the reaction system without enzyme and sample as a blank.
4 ml of hydrolysis product (5 mg/ml) and 2 ml of mushroom tyrosinase (10 U/ml) were incubated for 1 h at 37°C. Inactivated mushroom tyrosinase (heated in a boiling water bath for 10 mins) was also prepared as a blank group.

[1] = system: tyrosinase in B16F10 cells; assay: Tyrosinase activity in B16F10 melanoma cells; type: cell-based, murine; conditions: positive control, 0.75 mg/ml, 24 h; lysate with 10 mM L-DOPA, 30 min 37°C, 450 nm
Protocol: The tyrosinase inhibition was determined according to the method of Ullah et al. ([31]). B16F10 cells were seeded into 96-well plates at a rate of 5 × 10^4 cells per well and incubated at 37°C in a humid atmosphere of 5% CO2 for 24 h. […] (0, 0.1, 0.2, 0.4, 0.8 and 1.6 mg/ml), and re-incubated for 24 h under the same conditions. The cells were then washed with PBS buffer, lysed with lysate buffer [100 μl containing 50 mM PBS, 0.1 mM phenylmethanesulfonyl fluoride (5 μl) and Triton X-100 (5 μl)], and frozen at −80°C for 30 min. The cell lysate was then centrifuged at 12,000 rpm at 4°C for 30 min and transferred to a 96-well plate with a total volume of 100 μl (80 μl lysate supernatant and 20 μl 10 mM L-DOPA) and incubated for 30 min at 37°C. The absorbance was measured at 450 nm using an enzyme-linked immunosorbent assay (ELISA) reader.

[2] = system: B16F10 melanoma cells (melanin content); assay: Melanin content in B16F10 melanoma cells; type: cell-based, murine; conditions: positive control, 0.75 mg/ml; NaOH/10% DMSO lysis, 405 nm
Protocol: (§1) B16F10 cells were kept in Dulbecco's modified eagle medium supplemented with 10% heat-inactivated fetal bovine serum, and cells were cultured at 37°C in an atmosphere with 5% CO2. These cells were then used for cell viability, tyrosinase inhibition and melanin content determination.
After cultivated according to the instructions above, the cells were digested with 0.25% trypsin when reached to 80–90% confluence to make a single cell suspension. Fresh culture medium was used to adjust the cell concentration to 1 × 10^6 cells/ml, 2 ml of which was inoculated in a 6-well culture plate for incubation overnight. When the cells adhered, the supernatant was discarded and the cells were rinsed with PBS once. 2 ml fresh culture medium was added again for incubation under CO2 for 48 h. The supernatant was discarded after the incubation, and the adhered cells were rinsed with PBS and then dispersed with trypsin. The dispersed cells were collected and centrifuged at 1,500 r/min for 10 min. […] Measured the optical density value of each well at 405 nm with a microplate reader, and calculated the melanin content ([32]). (3) Melanin content/%=(As-Ab)/(Ac-Ab)×100% where, As is the absorbance of experimental wells; Ac is the absorbance of control well; Ab is the absorbance of blank wells.

B16F10 melanoma cells = assay: Cell viability of B16F10 melanoma cells (CCK-8); type: cell-based, murine; conditions: 24 h
Protocol: as §1
The previously described cell counting kit-8 (CCK-8) assay was used to assess cell viability ([30]). The cells were incubated in a 96-well plate with 5 × 10^4 cells per well in a 5% humid CO2 atmosphere at 37°C for 24 h. […] The cells were re-incubated for 24 h under the same conditions. The cells were then treated with the CCK-8 reagent and incubated at 37°C for 1 h. Cell viability is calculated by reading the absorbance value at 450 nm. The calculation formula is shown below. (2) Cell viability/%=(As-Ab)/(Ac-Ab)×100% where, As is the absorbance of experimental wells (medium containing cells, CCK-8, sample to be tested); Ac is the absorbance of control well (medium containing cells, CCK-8, no sample to be tested); Ab is the absorbance of blank wells (medium without cells and samples to be tested, CCK-8).

[3] = synthetic peptides (purity more than 95%), mushroom tyrosinase, 2.5 mM L-DOPA, 200 mM pH 6.8 PBS, preincubation 15 min room temperature, 10 min 30°C, 475 nm, three parallel tests, read-out: IC50 (tyrosinase inhibition)

Sequence of Mushroom tyrosinase (C7FF04 1-392): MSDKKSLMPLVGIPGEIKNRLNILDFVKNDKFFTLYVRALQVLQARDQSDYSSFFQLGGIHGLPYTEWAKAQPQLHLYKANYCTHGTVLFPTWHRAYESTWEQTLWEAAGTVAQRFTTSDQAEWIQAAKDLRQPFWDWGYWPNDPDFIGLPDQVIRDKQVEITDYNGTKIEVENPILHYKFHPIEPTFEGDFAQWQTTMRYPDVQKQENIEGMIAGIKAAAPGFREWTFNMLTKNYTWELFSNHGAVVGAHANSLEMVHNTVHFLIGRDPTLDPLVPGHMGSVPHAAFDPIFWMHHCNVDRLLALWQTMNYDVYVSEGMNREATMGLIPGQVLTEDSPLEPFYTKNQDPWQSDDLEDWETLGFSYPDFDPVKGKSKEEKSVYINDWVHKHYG

Molecule: Phe-Pro-Tyr [FPY, from defatted walnut (Juglans regia L.) meal hydrolysate]
IC50 (tyrosinase; from defatted walnut (Juglans regia L.) meal hydrolysate, read-out: IC50 (tyrosinase inhibition)): 3.22 ± 0.22 mM

IC50 (Mushroom tyrosinase; [3]): 5.81 mM
Molecule: CC(C)[C@H](NC(=O)[C@H](CCC(=O)O)NC(=O)[C@H](CO)NC(=O)[C@@H](N)Cc1c[nH]c2ccccc12)C(=O)N[C@@H](Cc1ccccc1)C(=O)O [WSEVF] (H-WSEVF-OH)

Molecule: O=c1cc(CO)occ1O [kojic acid]
Tyrosinase inhibition rate in B16F10 cells [1]: 28.34%
Reduction of melanin content [2]: 55.4%

Molecule: CC(C)C[C@H](NC(=O)[C@H](Cc1ccccc1)NC(=O)CNC(=O)[C@H](CC(C)C)NC(=O)[C@@H](N)CC(=O)O)C(=O)N[C@@H](C)C(=O)N[C@@H](CCCNC(=N)N)C(=O)NCC(=O)N[C@@H](Cc1ccccc1)C(=O)O (H-DLGFLARGF-OH)
IC50 (Mushroom tyrosinase): 3.09 mM
Cell viability, concentration dependence (B16F10 melanoma cells; 0–1.6 mg/ml, CCK-8): cell survival rate gradually decreased
Cell viability (B16F10 melanoma cells; tested concentration range 0–1.6 mg/ml, CCK-8, 450 nm): > 50%

IC50 (Mushroom tyrosinase; [3]): 3.86 mM
Molecule: CC(C)C[C@H](NC(=O)[C@@H](NC(=O)[C@H](CC(C)C)NC(=O)[C@H](CCC(N)=O)NC(=O)[C@@H](N)Cc1c[nH]c2ccccc12)[C@@H](C)O)C(=O)O [WQLTL] (H-WQLTL-OH)

Molecule: RHAKF [from Chinese quince seed protein hydrolysate]
IC50 (tyrosinase inhibition) (tyrosinase; from Chinese quince seed protein hydrolysate): 1150 µg/mL

IC50 (Mushroom tyrosinase; [3]): 4 mM
Molecule: CC(C)C[C@H](NC(=O)[C@H](CC(=O)O)NC(=O)[C@@H](N)Cc1ccccc1)C(=O)NCC(=O)N[C@@H](Cc1ccccc1)C(=O)N[C@@H](CC(C)C)C(=O)N[C@@H](C)C(=O)N[C@@H](CCCNC(=N)N)C(=O)O (H-FDLGFLAR-OH)
